Measured values: patent US4131727A, “Method of purifying alcohol dehydrogenase and affinity resin therefor” (President and Fellows of Harvard College, priority 1978, dated 1978)

Experiments:
[1] = tested on: human liver alcohol dehydrogenase; experiment: Inhibition of alcohol dehydrogenase activity of starting human liver; type: biochemical; details: 33 micromolar 4-methyl-pyrazole, pH 10, frozen human liver starting material
Description: Starting with 100 g frozen human liver having a specific activity of pH 10 of about 0.05 I.U./mg and low inhibition (~ 75%) by 33 micromolar 4-methyl-pyrazole at pH 10 as well as high intensity of stain for the anodic band on starch gel electrophoresis, the liver was homogenized in 2.5 volumes water at 4° C., centrifuged for 30 min. at 30,000 rpm in a 30 rotor to provide 240 ml of clear supernatant assaying at 58 I.U. of pyrazole-insensitive activity with a specific activity of 0.002 I.U./mg.

[2] = target: T1, II-ADH (anodic band of liver alcohol dehydrogenase) (Homo sapiens, UniProt P08319); experiment: Inhibition of purified II-ADH (anodic band, pyrazole-insensitive liver alcohol dehydrogenase) activity; type: biochemical; details: 33 micromolar 4-methyl-pyrazole, product after agarose-AMP
T1 construct: Starting with 100 g frozen human liver; from tissue; host or cells: human liver (frozen)
T1 sequence (P08319 2-380 limits assumed): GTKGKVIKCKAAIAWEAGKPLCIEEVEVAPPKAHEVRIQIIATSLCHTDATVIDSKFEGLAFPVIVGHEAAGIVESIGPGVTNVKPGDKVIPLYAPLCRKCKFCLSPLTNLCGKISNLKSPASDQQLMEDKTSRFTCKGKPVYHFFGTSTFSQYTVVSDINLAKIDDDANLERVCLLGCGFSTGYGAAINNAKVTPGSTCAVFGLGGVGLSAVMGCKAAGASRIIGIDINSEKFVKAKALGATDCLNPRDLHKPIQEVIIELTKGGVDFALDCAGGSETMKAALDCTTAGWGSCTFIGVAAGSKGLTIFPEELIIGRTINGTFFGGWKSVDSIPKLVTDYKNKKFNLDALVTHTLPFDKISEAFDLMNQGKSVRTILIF
Source text: (§1) However, purification of these enzymes has been a complicated and difficult procedure. […] Elution is preferably carried out with pyrazole solution or with a lower alkanol having at least two carbon atoms, e.g., ethanol, 1-propanol, 1-butanol, 1-pentanol, and the like. Further purification and separation of isoenzymes from the bound portion can be achieved by alcohol gradient elution. The alcohol dehydrogenase of the bound portion can be separated from the NAD after elution, if desired, by conventional dialysis procedures. […] The anodic band of liver alcohol dehydrogenase, as identified by Li et al., Biochem. Biophys. Res. Comm.

[3] = tested on: other forms of liver alcohol dehydrogenase; experiment: Inhibition of the other (pyrazole-sensitive) forms of liver alcohol dehydrogenase; type: biochemical, human; details: 0.2 mM 4-methylpyrazole, 100 mM ethanol, remainder of the purified enzyme forms
Source text: as §1

alcohol dehydrogenase = experiment: Dissociation of binary complex of alcohol dehydrogenase with NAD; type: binding; details: read-out: dissociation constant of the complex
Source text: The binary complex, in which two molecules of NAD are complexed with 1 molecule of alcohol dehydrogenase, can be prepared simply by mixing NAD with the crude extract of alcohol dehydrogenase. In order to ensure that substantially all of the alcohol dehydrogenase is present in solution in the form of the binary complex, it is desirable to employ an excess of the amount of NAD over that theoretically required. […] Although larger amounts of NAD can be used, there is no advantage in using a concentration above about 10^-3 molar since optimum results are achieved at that concentration with no further improvement even when the concentration of the NAD is 10^-2 molar or even higher, the results being approximately the same at these higher concentrations. The aqueous medium containing the binary complex may be acidified if desired. Satisfactory results are obtained at pH 8.0, but may be improved by decreasing the pH to approximately 7.5 in order to achieve optimum results; however, no further improvement is achieved by further lowering of the pH, the results remaining about the same even at a pH below 6.

inhibition [1] | inhibition (in words) [2] | inhibition of activity [3] | Kd (alcohol dehydrogenase) | Structure (SMILES)
~ 75% | virtually uninhibited | more than 90% | – | Cc1cn[nH]c1 [4-methylpyrazole]
– | – | – | ~1000 nM | NC(=O)c1ccc[n+]([C@@H]2O[C@H](COP(=O)([O-])OP(=O)(O)OC[C@H]3O[C@@H](n4cnc5c(N)ncnc54)[C@H](O)[C@@H]3O)[C@@H](O)[C@H]2O)c1 [NAD]
